Measured values from US9463197B2, “Method for treating abnormal polyglutamine-mediated disease” (NATIONAL TAIWAN NORMAL UNIVERSITY, priority 2013, dated 2016).

Assays:
293 ATXN3/Q75-GFP cells = assay: ATXN3/Q75 aggregation assay (high content analysis); assay type: cell-based; conditions: at 100 nM; doxycycline and oxaliplatin 6 days; positive control
Procedure: 293 ATXN3/Q75-GFP cells were plated into 96-well (2×10^4/well) dishes, grown for 24 hr and treated with different concentrations of the trehalose or analogs (100 nM˜100 μM) and suberoylanilide hydroxamic acid (SAHA, Cayman Chemical) for 8 hr. Then, doxycycline (10 μg/mL, BD) was added to the medium in each well to induce ATXN3/Q75-GFP expression for 6 days. Oxaliplatin (5 μM, Sigma) was also added to increase aggregate accumulation through inhibition of cell division. Then, cells were stained with Hoechst 33342 (0.1 μg/mL, Sigma) and aggregation percentage was assessed by high content analysis (HCA) system (ImageXpressMICRO, Molecular Devices), with excitation/emission wavelengths at 482/536 (EGFP).
In the present example, the influences of the trehalose and analogs and HDAC inhibitor SAHA in the ATXN3/Q75-GFP cells were respectively examined. After 6 days of the treatment of doxycycline and oxaliplatin, the fluorescence microscopy images were observed, and aggregation percentage of ATXN3/Q75-GFP cells was assessed by high-content analysis system. The result was shown in FIG. 3, as a positive control, HDAC inhibitor SAHA reduced the ATXN3/Q75 aggregation to 85% (at 100 nM) as compared to untreated cells (100%).

porcine kidney trehalase = target: T1, porcine kidney trehalase (Sus scrofa, UniProt I3LIR5); assay: Inhibition of analogs against trehalase activity (glucose from trehalose, HPLC); assay type: biochemical; conditions: preincubated 30 min at 37°C
T1 sequence (I3LIR5 24-583): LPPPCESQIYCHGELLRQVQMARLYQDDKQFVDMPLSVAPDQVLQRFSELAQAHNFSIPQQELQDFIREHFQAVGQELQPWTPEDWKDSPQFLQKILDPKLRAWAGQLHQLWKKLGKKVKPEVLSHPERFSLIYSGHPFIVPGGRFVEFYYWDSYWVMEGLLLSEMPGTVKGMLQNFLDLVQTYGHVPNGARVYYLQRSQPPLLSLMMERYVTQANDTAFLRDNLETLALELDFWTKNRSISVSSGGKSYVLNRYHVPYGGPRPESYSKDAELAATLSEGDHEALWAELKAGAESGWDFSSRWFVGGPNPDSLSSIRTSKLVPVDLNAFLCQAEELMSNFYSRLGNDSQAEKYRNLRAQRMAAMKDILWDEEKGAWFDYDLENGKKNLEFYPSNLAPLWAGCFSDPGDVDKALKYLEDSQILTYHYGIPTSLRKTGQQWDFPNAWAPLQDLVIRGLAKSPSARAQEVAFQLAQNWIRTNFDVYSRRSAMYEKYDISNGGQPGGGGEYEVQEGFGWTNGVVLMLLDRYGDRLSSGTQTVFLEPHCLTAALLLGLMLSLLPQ
Procedure: Hydrolysis of trehalose and analogs was tested using porcine kidney trehalase (Sigma-Aldrich, T8778). The standard reaction was performed by adding 0.001 unit of trehalase into 50 μl reaction solution containing 135 mM citric acid (pH 5.7) and 28 mM trehalose or trehalose analogs. […] The standard reaction was performed by adding 0.001 unit of trehalase into 50 μl reaction solution containing 135 mM citric acid (pH 5.7) and 44.8 mM α-D-lactulose, 44.8 mM α-D-melibiose, 0.2 μM validamycin A, or 0.2 μM validoxylamine A. Trehalase was incubated with analog for 30 min at 37° C., and the reaction was then started by addition of trehalose. After incubation at 37° C. for 2 hr, the reaction was terminated by heating the mixture in boiling water for 15 min. The activity of trehalase was assayed by measuring the amount of glucose produced from trehalose. The amount of carbohydrates after each enzymatic reaction was measured using a high-performance liquid chromatography (HPLC) system (Schambeck SFD 2100) equipped with an refractive index (RI) detector (SFD, RI 2000) at a flow rate of 1 ml/min. A carbohydrate analysis column (Shodex SUGAR SZ5532, 6.0 mm ID×150 mm L) equilibrated with 75% acetonitrile, 24% Milli-Q water, and 1% formic acid was used. The RI detector and column oven temperature were set to 40 and 60° C., respectively.
Hydrolysis of trehalose, lactulose and melibiose (28 mM) was tested using porcine kidney trehalase (1 mU).

SMILES | Inhibition of trehalase activity (glucose generated from trehalose) (porcine kidney trehalase; 44.8 mM analog) | Inhibition of trehalase activity (glucose generated from trehalose) (porcine kidney trehalase; 0.2 μM inhibitor) | other results
O=C(CCCCCCC(=O)Nc1ccccc1)NO [SAHA, suberoylanilide hydroxamic acid] |  |  | ATXN3/Q75 aggregation as compared to untreated cells (100%) (293 ATXN3/Q75-GFP cells): 85%
OC[C@H]1O[C@@H](O[C@@H]2[C@@H](CO)O[C@](O)(CO)[C@H]2O)[C@H](O)[C@@H](O)[C@H]1O [lactulose, α-D-lactulose] | did not inhibit the trehalase activity |  | 
OC[C@H]1O[C@H](OC[C@H]2O[C@H](O)[C@H](O)[C@@H](O)[C@@H]2O)[C@H](O)[C@@H](O)[C@H]1O [melibiose, D-(+)-melibiose] | did not inhibit the trehalase activity |  | 
OCC1=C[C@@H](N[C@H]2C[C@H](CO)[C@@H](O[C@H]3O[C@@H](CO)[C@H](O)[C@@H](O)[C@@H]3O)[C@H](O)[C@H]2O)[C@H](O)[C@@H](O)[C@@H]1O [validamycin A] |  | can inhibit the trehalase activity | 
OCC1=C[C@H](N[C@H]2C[C@H](CO)[C@@H](O)[C@H](O)[C@H]2O)[C@H](O)[C@@H](O)[C@@H]1O [validoxylamine A] |  | can inhibit the trehalase activity | 
